Laboratory results taken from patent US8697701B2, “Solid germicidal composition and disinfection method” (Ueno Fine Chemicals Industry, Ltd., priority 2012, dated 2014).

What was measured:
[1] = tested on: Serratia marcescens (bacterium 1 isolated from a food factory); settings: preliminary test, sensitization time 5 minutes
Procedure: The following sample bacterium (i) isolated from a food factory was cultured in a BHI bouillon medium at 30° C. for 24 hours. A 0.03 ml of a liquid obtained by diluting the cultured bacterium with a physiological saline solution to the concentration on the order of 10^6 cfu/ml was mixed with respective 3 ml of aqueous solutions, each of which was obtained by diluting an aqueous solution of the above solid germicidal composition (1.0% by weight) with sterile water so that the concentration of the solid germicidal composition would be 0.01, 0.02 and 0.04% by weight, respectively. The obtained mixture was then left at 25° C. for 5 minutes. After sensitization time elapsed, stirring was carried out again. One platinum loop of each mixture was taken and inoculated in 10 ml of a BHI bouillon medium. The medium was incubated at 30° C. for 48 hours. A BHI bouillon medium without inoculation of the bacterium was used as a reference, and turbidity of the medium was compared with the reference by visual inspection to determine the germicidal effect of the aqueous solution of the solid germicidal composition on the bacterium.
Sample Bacterium (i): Serratia marcescens (Bacterium 1 Isolated from a Food Factory)

[2] = cited from earlier work
[3] = tested on: Serratia marcescens (bacterium 2 isolated from a food factory); test: Test for inhibition of drug resistance development (repeated MIC, broth microdilution); type: cell-based; settings: sample bacteria (iii) and (iv), eight MIC rounds, as compared to DDAC
Procedure: According to the standard method (broth microdilution method) of Japanese Society of Chemotherapy, minimal inhibitory concentration (MIC) was continuously measured. The compositions shown in Table 7 were diluted with sterile water to obtain drug solutions with a concentration of the composition of 0.007 to 1.792% by weight, and a nutrient broth medium adjusted to a concentration twice as high as the specified concentration (manufactured by Eiken Chemical Co., Ltd., normal bouillon medium ‘Eiken’ E-MC35) was added thereto in an amount equal to the drug solution. The obtained mixture was stirred and then dispensed to a microtiter plate (96 well) in an amount of 150 μl/well. […] The diluted culture was then seeded in an amount of 7.5 μl/well to the microtiter plate containing the medium prepared as described above. The plate was incubated in a constant temperature oven at 30° C. for 48 hours, the growth of the bacterium was checked by visual inspection, and MIC was determined. […] Using the diluted culture, MIC was determined again in the same manner as described above. MIC was determined eight times in total by repeating the above procedure, and changes in MIC were confirmed.
Sample Bacterium (iii): Serratia marcescens (Bacterium 2 Isolated from a Food Factory)

Row | Compound | solubility in water at 20° C. [2] | other results
1 | CCCCCCCCCC[N+](C)(C)CCCCCCCCCC.[Cl-] [didecyl dimethyl ammonium chloride] |  | maximum concentration up to which proliferation of sample bacterium (i) was not inhibited [1]: > 80 ppm
2 | O=C(O)CC(O)C(=O)O (stereo not shown) [Malic acid] | (solubility 55.8%) | 
3 | CCCCCCCCCC[n+]1ccn(CCCCCCCCCCn2cc[n+](CCCCCCCCCC)c2C)c1C.[Cl-].[Cl-] [1,10-di(3-decyl-2-methylimidazolium)decane dichloride] |  | development of drug-resistant microorganisms [3]: hardly developed
4 | O=C(O)/C=C/C(=O)O [Fumaric acid] | (solubility 0.51%) | 
